These are literature values, as cited in patent US20050065183A1 (priority 2003, published 2005).

The subject of the series is muscarinic.

On to `CC(C)(C(=O)O)c1ccc(C(O)CCCN2CCC(C(O)(c3ccccc3)c3ccccc3)CC2)cc1` (stereo not drawn) [Fexofenadine, 4-[4-[4-(hydroxydiphenylmethyl)-1-piperidinyl]-1-hydroxybutyl]-α,α-dimethylbenzeneacetic acid], for which the antimuscarinic activity result was “weak”.
